Data taken from patent publication US20230310421A1, “MOLECULES FOR USE IN THE TREATMENT OF VIRAL INFECTIONS” (priority 2020, published 2023).

Key:
[1] = system: MHV-A59; experiment: Direct (intrinsic) antiviral activity: survival, titer and syncitia formation in L929, BMDMs and LA4 cells; type: cell-based, Murine Hepatitis Virus
[2] = system: L929 cells; experiment: Macrophage extrinsic cytotoxic activity (ECT): supernatant of MHV-infected BMDM on L929 cells, CellTiter-Glo / live imaging; details: L929 cells exposed to supernatant from MOI 0.1-infected BMDM

Row | Compound | intrinsic antiviral activity ([1]; drug applied directly on infected L929 cells) | effect on ECT (viability in uninfected cells) [2] | effect on DDP rescue of cell viability of infected L929 cells [1]
1 | N[C@H]1CC[C@H](N[C@@H]2C[C@H]2c2ccccc2)CC1 [Ory1001] | elicited intrinsic antiviral activity | – | –
2 | JAK inhibitor I | – | no effect | No effect
